Laboratory results taken from article PMC4721062, “Oxadiazole-2-oxides may have other functional targets, in addition to SjTGR, through which they cause mortality in Schistosoma japonicum” (Parasites & Vectors, 2016).
Entries after “also recorded” stand apart in the source; their conditions may differ. Read-outs that look alike come from different tables or passages of the source.

Legend:
recombinant SjTGR = target: T1, recombinant SjTGR (Schistosoma japonicum, UniProt B5THG7); assay: Inhibition of TrxR activity of recombinant SjTGR (DTNB assay); type: biochemical; conditions: 50 nM SjTGR, 1 mM NADPH, 15 min preincubation, DTNB reduction
T1 sequence (B5THG7 1-596): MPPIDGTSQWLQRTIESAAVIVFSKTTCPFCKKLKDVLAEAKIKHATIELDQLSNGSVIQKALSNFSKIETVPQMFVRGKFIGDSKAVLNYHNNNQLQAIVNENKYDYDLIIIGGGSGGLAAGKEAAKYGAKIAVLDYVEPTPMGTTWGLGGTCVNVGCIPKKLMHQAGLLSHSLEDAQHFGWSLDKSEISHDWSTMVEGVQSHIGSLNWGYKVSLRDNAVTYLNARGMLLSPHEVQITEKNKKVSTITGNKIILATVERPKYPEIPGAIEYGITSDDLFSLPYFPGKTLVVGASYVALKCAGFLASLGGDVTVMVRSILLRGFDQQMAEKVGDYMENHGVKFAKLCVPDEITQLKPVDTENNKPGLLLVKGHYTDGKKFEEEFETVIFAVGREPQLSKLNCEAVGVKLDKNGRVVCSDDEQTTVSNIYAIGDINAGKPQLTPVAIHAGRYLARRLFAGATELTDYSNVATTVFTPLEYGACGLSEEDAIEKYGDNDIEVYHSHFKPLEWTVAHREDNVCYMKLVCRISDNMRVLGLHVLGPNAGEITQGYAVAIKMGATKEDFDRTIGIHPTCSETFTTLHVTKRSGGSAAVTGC
Procedure, shortened: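 SjTGR (50 nM) preincubated 15 min at room temperature with 1 mM NADPH and oxadiazole-2-oxides (2-20 μM). Reaction started with potassium phosphate pH 7.4, 10 mM EDTA, 100 μM NADPH, 3 mM DTNB; A412 increase followed over first 2 min, triplicates.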

juvenile S. japonicum = assay: microbe, parasite or virus in culture; type: cell-based; conditions: for mortality at 100 µM / killing at 2 µM / killing at 5 µM / killing at 50 µM / mortality at 50 µM: Schistosoma japonicum; for mortality at 100 µM / mortality at 50 µM: read-out: Mortality of juvenile worms; for killing at 2 µM / killing at 5 µM / killing at 50 µM / Killing activity 24hr / Killing activity 48hr / Killing activity 72hr: juvenile worms; for Killing activity 24hr / Killing activity 48hr / Killing activity 72hr: 10 μM
Procedure, shortened: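 Juvenile S. japonicum, 20–30 tail-shed cercariae per well, were exposed to compounds at 2, 5, 10 and 50 μM in RPMI 1640 with 10% FBS and HEPES. Survival was scored microscopically at 24, 48 and 72 h, with death defined by disrupted internal structure or tegument or 1 min without motility. % D is dead/total, averaged over three experiments.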

[1] = 24 h, read-out: Killing activity 24hr
[2] = 48 h, read-out: Killing activity 48hr
[3] = 72 h, read-out: Killing activity 72hr

Row | SMILES | IC50 (recombinant SjTGR; read-out: IC50 of SjTGR) [µM] | mortality at 100 µM (juvenile S. japonicum; 72 h) [%] | killing at 2 µM (juvenile S. japonicum; [1]) [%] | killing at 2 µM (juvenile S. japonicum; [2]) [%] | killing at 2 µM (juvenile S. japonicum; [3]) [%] | killing at 5 µM (juvenile S. japonicum; [1]) [%] | killing at 5 µM (juvenile S. japonicum; [2]) [%] | killing at 5 µM (juvenile S. japonicum; [3]) [%] | killing at 50 µM (juvenile S. japonicum; [1]) [%] | killing at 50 µM (juvenile S. japonicum; [2]) [%] | killing at 50 µM (juvenile S. japonicum; [3]) [%] | Killing activity 24hr (juvenile S. japonicum; 24 h) [%D] | Killing activity 48hr (juvenile S. japonicum; 48 h) [%D] | Killing activity 72hr (juvenile S. japonicum; 72 h) [%D] | mortality at 50 µM (juvenile S. japonicum; 24 h) [%] | mortality at 50 µM (juvenile S. japonicum; 72 h) [%] | IC50 (recombinant SjTGR; IC50 of SjTGR) [µM] | IC50 of SjTGR (recombinant SjTGR)
1 | COc1ccc(-c2no[n+]([O-])c2CO)cc1 [Compound 4a] | 2.7 | 90 ± 2.8 | 29.4 | 35.3 | 44.1 | 36.2 | 48.9 | 53.2 | 56.8 | 88.6 | 90.9 | 26.7 | 37.8 | 58.9 | – | – | – | –
2 | N#Cc1c(-c2ccc(OC/C=C/CBr)cc2)no[n+]1[O-] [Compound 16] | 0.5 | – | 14.7 | 22.7 | 25.3 | 16.1 | 21.9 | 34.3 | 31.4 | 60.5 | 72.1 | 20.9 | 27.3 | 39.1 | < 30 | 72.1 ± 3.7 | – | –
3 | N#Cc1c(-c2ccc(OCCCBr)cc2)no[n+]1[O-] [Compound 13] | 1.6 | – | 13 | 13 | 13 | 14.2 | 15.5 | 15.5 | 23.3 | 29.9 | 41 | 19.0 | 19.0 | 20.3 | < 30 | 41 ± 6.3 | – | –
4 | N#Cc1c(-c2ccc(Br)cc2)no[n+]1[O-] [Compound 7c] | – | – | 100 | 100 | 100 | 100 | 100 | 100 | 100 | 100 | 100 | 100.0 | 100.0 | 100.0 | > 70 | 100 | 3.7 | –
5 | C#CCOc1ccc(-c2no[n+]([O-])c2C#N)cc1 [Compound 20] | 3.3 | 67.6 ± 4.5 | 8.5 | 14.2 | 19.9 | 20 | 24 | 34 | 45.6 | 48.5 | 67.6 | 43.4 | 45.3 | 52.8 | – | – | – | –
6 | N#Cc1c(-c2ccc(OCc3ccccc3)cc2)no[n+]1[O-] [Compound 19] | > 20 | – | 15.1 | 15.1 | 17 | 12.5 | 19.2 | 28.8 | 82.5 | 92.8 | 100 | 43.8 | 50.0 | 65.0 | – | – | – | did not inhibit; also recorded: neither did they inhibit the SjTGR activity
7 | Cc1ccc(-c2no[n+]([O-])c2C#N)cc1 [Compound 7b] | – | – | 16 | 26.6 | 31.9 | 21.1 | 26.3 | 36.8 | 47.5 | 55.9 | 57.6 | 23.8 | 33.3 | 57.1 | – | – | 14.2 | –
8 | COc1ccc(-c2no[n+]([O-])c2C#N)cc1 [Compound 7a] | – | – | 14.6 | 29.2 | 41.7 | 15.7 | 39.2 | 39.2 | 46.2 | 53.3 | 70 | 36.7 | 36.7 | 60.0 | – | – | 12.2 | –
9 | Cc1ccc(-c2no[n+]([O-])c2CO)cc1 [Compound 4b] | 1.7 | 100 | 35.2 | 35.2 | 42.3 | 42.9 | 46.9 | 51 | 76.5 | 88.2 | 100 | 48.0 | 50.0 | 60.0 | > 70 | – | – | –
10 | N#Cc1c(-c2ccc(COc3ccc(C=O)cc3)cc2)no[n+]1[O-] [Compound 26] | > 20 | – | 36.4 | 36.4 | 50.9 | 48.9 | 48.9 | 53.2 | 46.3 | 63.4 | 85.4 | 56.1 | 61.0 | 80.5 | – | – | – | did not inhibit; also recorded: neither did they inhibit the SjTGR activity
11 | N#Cc1c(-c2ccc(O)cc2)no[n+]1[O-] [Compound 8] | – | – | 12 | 18 | 21 | 12.8 | 23 | 46.2 | 26.8 | 28.2 | 33.8 | 15.1 | 23.3 | 25.6 | < 30 | – | 37.4 | –
